US20100298300A1, “TRIAZOLOPYRAZINE COMPOUNDS USEFUL FOR THE TREATMENT OF DEGENERATIVE & INFLAMMATORY DISEASES” (priority 2006, published 2010)

How the values were obtained:
[1] = system: MMP1 expression by activated primary synovial fibroblasts; test: 'MMP assay': MMP1 expression by complex trigger activated synovial fibroblasts (MMP1 ELISA); format: cell-based; settings: Homo sapiens, Fibroblast; Table 3; RASFs, complex trigger, 48 hrs, MMP1 ELISA
[2] = system: TNFα release by human PBMCs; test: Cytokine release by LPS stimulated human PBMCs (TNFα ELISA); format: cell-based; settings: PBMC, 24 h, Table 5, LPS 1 μg/mL
MAPKAPK5 = target: T1, MAPKAPK5 (Homo sapiens, UniProt Q8IW41); test: MAPKAP-K5 assay (FlashPlate kinase assay)
T1 sequence (Q8IW41 1-471 isoform Q8IW41-2): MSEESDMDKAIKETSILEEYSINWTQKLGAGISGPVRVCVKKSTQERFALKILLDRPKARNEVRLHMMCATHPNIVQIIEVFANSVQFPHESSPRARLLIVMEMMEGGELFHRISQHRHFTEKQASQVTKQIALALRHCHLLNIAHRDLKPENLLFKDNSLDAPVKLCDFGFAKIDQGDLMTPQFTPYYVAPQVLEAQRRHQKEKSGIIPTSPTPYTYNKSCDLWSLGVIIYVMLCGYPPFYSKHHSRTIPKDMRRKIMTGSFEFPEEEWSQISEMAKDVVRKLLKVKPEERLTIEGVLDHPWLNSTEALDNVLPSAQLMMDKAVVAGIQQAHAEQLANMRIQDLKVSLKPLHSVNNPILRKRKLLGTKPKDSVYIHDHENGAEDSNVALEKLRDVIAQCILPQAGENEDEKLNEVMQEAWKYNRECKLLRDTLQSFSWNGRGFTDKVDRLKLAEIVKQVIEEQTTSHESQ

SMILES	EC50 [1] [nM]	EC50 [2] [nM]	IC50 (MAPKAPK5) [nM]
NC(=O)c1cc(-c2cnc(Nc3ccc(C4CCN(CC(F)(F)F)CC4)cc3)c3ncnn23)cs1 [Compound 63, 4-(8-{4-[1-(2,2,2-Trifluoroethyl)piperidin-4-yl]phenylamino}-[1,2,4]triazolo[1,5-a]pyrazin-5-yl)thiophene-2-carboxylic acid amide]	101 to 500	> 1000	> 1000
FC(F)(F)CN1CCC(c2ccc(Nc3ncc(-c4cn[nH]c4)n4ncnc34)cc2)CC1 [Compound 64]	> 1000	> 1000	> 1000
O=C1NCc2cc(-c3cnc(Nc4ccc(OCCN5CCOCC5)cc4)c4ncnn34)ccc21 [Compound 65, 5-(8-(4-(2-Morpholinoethoxy)phenylamino)-[1,2,4]triazolo[1,5-a]pyrazin-5-yl)isoindolin-1-one]	101 to 500	> 1000	101 to 500
c1nc2c(Nc3ccc(N4CCOCC4)cc3)ncc(-c3ccc4ncsc4c3)n2n1 [Compound 66]	501 to 1000	> 1000	> 1000
Fc1cc(N2CCOCC2)ccc1Nc1ncc(-c2cn[nH]c2)n2ncnc12 [Compound 67, N-(2-Fluoro-4-morpholinophenyl)-5-(1H-pyrazol-4-yl)-[1,2,4]triazolo[1,5-a]pyrazin-8-amine]	> 1000	> 1000	> 1000
Clc1cc(N2CCOCC2)ccc1Nc1ncc(-c2cn[nH]c2)n2ncnc12 [Compound 68]	> 1000	> 1000	> 1000
CC(=O)c1ccc(-c2cnc(Nc3ccc(N4CCOCC4)cc3)c3ncnn23)s1 [Compound 69]	> 1000	> 1000	> 1000
OCc1n[nH]cc1-c1cnc(Nc2ccc(N3CCOCC3)cc2)c2ncnn12 [Compound 70, (4-(8-(4-Morpholinophenylamino)-[1,2,4]triazolo[1,5-a]pyrazin-5-yl)-1H-pyrazol-5-yl)methanol]	> 1000	> 1000	> 1000
O=C1CCC(c2ccc(-c3cnc(Nc4ccc(N5CCOCC5)cc4)c4ncnn34)cc2)=NN1 [Compound 71]	> 1000	> 1000	> 1000
c1nc2c(Nc3ccc(N4CCOCC4)cc3)ncc(-c3ccc4nonc4c3)n2n1 [Compound 72]	> 1000	> 1000	> 1000
CNC(=O)c1nc(-c2cnc(Nc3ccc(N4CCOCC4)cc3)c3ncnn23)cs1 [Compound 73, 4-[8-(4-Morpholin-4-yl-phenylamino)-[1,2,4]triazolo[1,5-a]pyrazin-5-yl]-thiazole-2-carboxylic acid methylamide]	> 1000	> 1000	> 1000
CNC(=O)c1nc(-c2cnc(Nc3ccc(N4CCN(C(C)C)CC4)cc3)c3ncnn23)cs1 [Compound 74]	> 1000	> 1000	> 1000
O=C1NCc2cc(-c3cnc(Nc4ccc(N5CCOCC5)cc4F)c4ncnn34)ccc21 [Compound 75]	> 1000	> 1000	> 1000
O=C1NCc2cc(-c3cnc(Nc4ccc(N5CCOCC5)cc4Cl)c4ncnn34)ccc21 [Compound 76]	501 to 1000	> 1000	> 1000
CC(C)N1CCN(c2ccc(Nc3ncc(-c4ccc5c(c4)CNC5=O)n4ncnc34)c(Cl)c2)CC1 [Compound 77]	> 1000	> 1000	101 to 500
Nc1ncc(-c2cnc(Nc3ccc(N4CCOCC4)cc3)c3ncnn23)cn1 [Compound 78]	> 1000	501 to 1000	> 1000
CC(C)N1CCN(c2ccc(Nc3ncc(-c4ccc5c(c4)CNC5=O)n4ncnc34)cn2)CC1 [Compound 79, 5-(8-(6-(4-Isopropylpiperazin-1-yl)pyridin-3-ylamino)-[1,2,4]triazolo[1,5-a]pyrazin-5-yl)isoindolin-1-one]	501 to 1000	> 1000	1 to 100
CC(C)N1CCN(c2ccc(Nc3ncc(-c4csc5c(C(N)=O)cccc45)n4ncnc34)cc2)CC1 [Compound 81, 3-{8-[4-(4-Isopropylpiperazin-1-yl)phenylamino]-[1,2,4]triazolo[1,5-a]pyrazin-5-yl}benzo[b]thiophene-7-carboxylic acid amide]	> 1000	> 1000	> 1000
CC(C)N1CCC(c2ccc(Nc3ncc(-c4cn[nH]c4)n4ncnc34)cc2)CC1 [Compound 84, [4-(1-Isopropylpiperidin-4-yl)phenyl]-[5-(1H-pyrazol-4-yl)-[1,2,4]triazolo[1,5-a]pyrazin-8-yl]amine]	> 1000	> 1000	501 to 1000
Nc1nc(-c2ccc(-c3cnc(Nc4ccc(N5CCOCC5)cc4)c4ncnn34)cc2)cs1 [Compound 85]	> 1000	> 1000	> 1000
CC(C)N1CCN(c2ccc(Nc3ncc(-c4coc(C(N)=O)c4)n4ncnc34)cn2)CC1 [Compound 86, 4-(8-(6-(4-Isopropylpiperazin-1-yl)pyridin-3-ylamino)-[1,2,4]triazolo[1,5-a]pyrazin-5-yl)furan-2-carboxamide]	> 1000	> 1000	1 to 100
O=C1NCc2cc(-c3cnc(Nc4ccc(N5CCOCC5)nc4)c4ncnn34)ccc21 [Compound 87]	101 to 500	> 1000	1 to 100
CC(C)N1CCC(c2ccc(Nc3ncc(-c4csc(C(N)=O)c4)n4ncnc34)cc2)CC1 [Compound 89, 4-{8-[4-(1-Isopropylpiperidin-4-yl)phenylamino]-[1,2,4]triazolo[1,5-a]pyrazin-5-yl}-thiophene-2-carboxylic acid amide]	501 to 1000	> 1000	1 to 100
CC(C)N1CCN(c2ccc(Nc3ncc(-c4ccnc(CO)c4)n4ncnc34)cn2)CC1 [Compound 90, (4-{8-[6-(4-Isopropylpiperazin-1-yl)pyridin-3-ylamino]-[1,2,4]triazolo[1,5-a]pyrazin-5-yl}pyridin-2-yl)methanol]	> 1000	> 1000	> 1000
CC(C)N1CCN(c2ccc(Nc3ncc(-c4ccnc(CF)c4)n4ncnc34)cc2)CC1 [Compound 91]	> 1000	> 1000	> 1000
CC(C)N1CCC(c2ccc(Nc3ncc(-c4ccc5c(c4)CNC5=O)n4ncnc34)cc2)CC1 [Compound 92, 5-{8-[4-(1-Isopropylpiperidin-4-yl)phenylamino]-[1,2,4]triazolo[1,5-a]pyrazin-5-yl}-2,3-dihydroisoindol-1-one]	101 to 500	> 1000	1 to 100
NC(=O)c1cc(-c2cnc(Nc3ccc(N4CCOCC4)nc3)c3ncnn23)co1 [Compound 94]	> 1000	> 1000	1 to 100
O=C1NCc2cc(-c3cnc(Nc4cnc(N5CCOCC5)nc4)c4ncnn34)ccc21 [Compound 99]	> 1000	501 to 1000	101 to 500
CC(C)N1CCN(c2ncc(Nc3ncc(-c4ccc5c(c4)CNC5=O)n4ncnc34)cn2)CC1 [Compound 101]	> 1000	> 1000	101 to 500
